Source: PubChem BioAssay (NCI)
“And” between values parts separate entries of the source, which are not always exact repeats. Equal entries are not always repeated.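 Briefly, cells in 96-well plates were exposed to five compound concentrations for 48 h, and endpoints were estimated by linear interpolation. GI50: concentration for 50% inhibition of growth. Definition used: TGI = concentration required for complete inhibition of growth.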

Key:
Experiment in all cases: DTP human tumour cell line panel, 48 h
SNB-75 CNS = tested on: SNB-75 CNS
SW-620 colon = tested on: SW-620 colon
NCI-H522 lung = tested on: NCI-H522 lung
UO-31 renal = tested on: UO-31 renal
OVCAR-8 ovarian = tested on: OVCAR-8 ovarian
K-562 leukemia = tested on: K-562 leukemia
IGROV1 ovarian = tested on: IGROV1 ovarian
U251 CNS = tested on: U251 CNS
SF-295 CNS = tested on: SF-295 CNS
COLO 205 colon = tested on: COLO 205 colon

| Structure (SMILES) | TGI (SNB-75 CNS) | TGI (SW-620 colon) | TGI (NCI-H522 lung) [µM] | TGI (UO-31 renal) | TGI (OVCAR-8 ovarian) | TGI (K-562 leukemia) | TGI (IGROV1 ovarian) | TGI (U251 CNS) [µM] | TGI (SF-295 CNS) | TGI (COLO 205 colon) | GI50 (OVCAR-8 ovarian) | GI50 (K-562 leukemia) | GI50 (IGROV1 ovarian) | GI50 (U251 CNS) [µM] | GI50 (SNB-75 CNS) | GI50 (SW-620 colon) | GI50 (NCI-H522 lung) [µM] | GI50 (UO-31 renal) | GI50 (SF-295 CNS) | GI50 (COLO 205 colon) |
| --- | --- | --- | --- | --- | --- | --- | --- | --- | --- | --- | --- | --- | --- | --- | --- | --- | --- | --- | --- | --- |
| Nc1n[n+]([O-])c2cc([N+](=O)[O-])ccc2[n+]1[O-] | 83.4 µM | > 100 µM | 4.25 | 23.7 µM | 20.5 µM | 11.7 µM | 13.2 µM | 18.5 | 22.5 µM | 19 µM |  |  |  |  |  |  |  |  |  |  |
| CC(C)N(C(=O)C12C3C4C1C1C2C3C41C(=O)C(C)(C)C)C(C)C (stereo not drawn) | > 100 µM | > 100 µM | 56.8 | > 100 µM | > 100 µM | > 100 µM | > 100 µM | > 100 | > 100 µM | > 100 µM |  |  |  |  |  |  |  |  |  |  |
| C[C@@H](C1CC[C@H]2[C@@H]3[C@@H]4O[C@@H]4[C@@]4(O)CC=CC(=O)[C@]4(C)[C@H]3C[C@H](O)[C@]12C)[C@H]1C[C@]2(C)O[C@]2(C)C(=O)O1 (stereo partly drawn) | > 100 µM | > 100 µM | > 100 | > 100 µM | > 100 µM | > 100 µM | > 100 µM | > 100 | > 100 µM | > 100 µM |  |  |  |  |  |  |  |  |  |  |
| OCC1NC(COC2OC(CO)C(O)C(O)C2O)C(O)C(O)C1O (stereo not drawn) | > 100 µM | > 100 µM | > 100 | > 100 µM | > 100 µM | > 100 µM | > 100 µM | > 100 | > 100 µM | > 100 µM |  |  |  |  |  |  |  |  |  |  |
| Nc1nc(=O)n(C2CC(O)C(CO)O2)cc1F (stereo not drawn) | > 100 µM | > 100 µM | > 100 | > 43.3 µM | > 100 µM | > 100 µM | > 100 µM | > 100 | > 100 µM | > 100 µM | 0.0594 µM | > 100 µM | > 100 µM | < 0.0506 |  |  |  |  |  |  |
| CNC(=O)c1cc(Oc2ccc3nc(NC(=O)Nc4ccc(CN5CCOCC5)c(C(F)(F)F)c4)sc3c2)ccn1 | 4.95 µM | 10 µM | 8.36 | 3.94 µM | 7.71 µM | > 100 µM | 10.5 µM | 3.54 | 4.73 µM | 4.58 µM | 2.63 µM | 1.53 µM | 2.77 µM | 1.77 | 1.74 µM | 3.31 µM | 1.97 | 1.65 µM | 1.9 µM | 2.1 µM |
| COc1ccc(-c2nn(-c3cccc(Cl)c3)cc2/C=C2\NC(=S)N(c3ccc(Cl)cc3)C2=O)cc1 | 4.47 µM | > 25 µM | 6.21 | > 25 µM | 7.02 µM | 7.92 µM | 10.1 µM | 6.99 | 12 µM | 11 µM | 2.62 µM | 3.12 µM | 4.99 µM | 2.86 | 0.95 µM | 8.51 µM | 1.98 | 8.53 µM | 4.63 µM | 5.59 µM |
| N#C/C(=C\c1ccc(O)c(O)c1)C(=O)NCc1ccc(C(F)(F)F)cc1 | 55.7 µM | 37.8 µM | 19.6 | 18 µM | > 49.7 µM | > 83.6 µM | 14.4 µM | 28.9 | 11.8 µM | 43.3 µM | 10.1 µM | 9.91 µM | 2.4 µM | 5.67 | 13.3 µM | 7.68 µM | 3.06 | 4.62 µM | 3.39 µM | 12.1 µM |
| COc1cc2c(Oc3ccc(NC(=O)C4(C(=O)Nc5ccc(F)cc5)CC4)cc3F)ccnc2cc1OCCCN1CCOCC1 | 1.88 µM and 2.16 µM | 1.85 µM and 2.6 µM | 2.87 | 2.61 µM and 2.04 µM | 4 µM and > 10 µM | 1.78 µM and 1.33 µM | 8.49 µM and 2.74 µM | 3.32 | 1.26 µM and 1.49 µM | 0.641 µM and 0.934 µM | 1.42 µM and 2.08 µM | 0.102 µM and 0.15 µM | 1.31 µM and 0.645 µM | 1.42 | 0.175 µM and 0.15 µM | 0.346 µM and 0.311 µM | 0.983 | 0.984 µM and 0.654 µM | 0.0519 µM and 0.0663 µM | 0.281 µM and 0.308 µM |
| O=C(O)C1C2C=CC(O2)C1C(=O)NCc1cccnc1 (stereo not drawn) | > 100 µM | > 100 µM | > 100 | > 100 µM | > 100 µM | > 100 µM | > 100 µM | > 100 | > 100 µM | > 100 µM |  |  |  |  |  |  |  |  |  |  |
| NC1=NN(c2ccccc2)C(=O)C1C(=O)C(=O)Nc1ccc(Cl)cc1 (stereo not drawn) | > 100 µM | > 100 µM | > 100 | > 100 µM | > 100 µM | > 100 µM | > 100 µM | > 100 | > 100 µM | > 100 µM |  |  |  |  |  |  |  |  |  |  |
| COC(=O)C(C(=O)C(=O)Nc1ccc(C)cc1)c1nc2ccc([N+](=O)[O-])cc2[nH]c1=O (stereo not drawn) | > 100 µM | > 100 µM | > 100 | > 100 µM | > 100 µM | > 100 µM | > 100 µM | > 100 | > 100 µM | > 100 µM |  |  |  |  |  |  |  |  |  |  |
| Cc1nnc(C[C@@H]2C=C(c3ccc(Cl)cc3)c3ccccc3-n3c(C)nnc32)o1 | 47.3 µM | 68.7 µM | 32.4 | 44.4 µM | > 67.4 µM | > 100 µM | > 100 µM | > 76.1 | 43 µM | 24.1 µM | 2.94 µM | 0.809 µM | 2.3 µM | 4.81 | 0.048 µM | 12 µM | 0.578 | 0.0739 µM | 1.71 µM | 0.296 µM |
| CC(C)C[C@H](CC(=O)O)C(=O)N[C@@H](Cc1c[nH]c2ccccc12)C(=O)N[C@@H](C)c1ccccc1 | > 25 µM | > 25 µM | > 25 | > 25 µM | > 25 µM | > 25 µM | > 25 µM | > 25 | > 25 µM | > 25 µM | > 25 µM | > 25 µM | > 25 µM | > 25 | > 25 µM | > 25 µM | > 25 | > 25 µM | > 25 µM | > 25 µM |
| CC/C=C\C[C@H]1C/C=C2/C(=O)C=C[C@H]2C/C=C\CCCC(=O)O1 | 8.74 µM | 10.4 µM | 7.21 | 11.2 µM | 11.7 µM | > 50 µM | 8.99 µM | 7.09 | 9.33 µM | 6.7 µM | 2 µM | 1.89 µM | 2.66 µM | 1.95 | 1.56 µM | 2.58 µM | 1.98 | 4.87 µM | 2.62 µM | 1.87 µM |
| COc1ccccc1-n1cnc(N)c1C(=O)c1cc(OC)c(OC)c(OC)c1 | 9.3 µM | > 100 µM | > 100 | > 100 µM | > 100 µM | > 100 µM | > 100 µM | > 100 | > 100 µM | 40.3 µM | 5.85 µM | 2.12 µM | 3.88 µM | 3.74 | 2.3 µM | 3.25 µM | 1.94 | 4.21 µM | 2.73 µM | 4.5 µM |
| CCCCCCCCCCC(=O)CCCCCCC(=O)O | > 100 µM | 55.7 µM | 50.5 | 71.9 µM | 33.7 µM | 26.9 µM | 34.9 µM | 86.1 | 48.7 µM | 29.8 µM |  |  |  |  |  |  |  |  |  |  |
| CCOC(=O)C1(CC(=O)O)CCCC1=O (stereo not drawn) | > 100 µM | > 100 µM | > 100 | > 100 µM | > 100 µM | > 100 µM | > 100 µM | > 100 | > 100 µM | > 100 µM |  |  |  |  |  |  |  |  |  |  |
| COc1ccc2[nH]c(Cl)c(/C=C3/C(=O)Nc4ccccc43)c2c1 | 0.659 µM | 7.58 µM | 1.87 | 9.96 µM |  | 13.2 µM | 20.7 µM | 2.75 | 1.28 µM | 3.25 µM | 0.498 µM | 0.444 µM | 0.724 µM | 0.861 | 0.252 µM | 0.366 µM | 0.381 | 0.878 µM | 0.574 µM | 0.427 µM |
| C/C(=N\Nc1ccccc1)c1sc(-c2nc(C)c(/C(C)=N/Nc3ccccc3)s2)nc1C | > 77.1 µM | > 35.2 µM | 48.3 | > 60.7 µM | > 100 µM | 69.9 µM | > 60.9 µM | > 100 | > 34.9 µM | 25.6 µM |  |  |  |  |  |  |  |  |  |  |
| O=S(=O)(C1=CC(S(=O)(=O)c2ccccc2)COC1)c1ccccc1 (stereo not drawn) | > 100 µM | > 100 µM | > 100 | > 100 µM | > 100 µM | > 100 µM | > 100 µM | > 100 | > 100 µM | > 100 µM |  |  |  |  |  |  |  |  |  |  |
| O=C(COc1ccc(/C=C2\Oc3ccc4ccccc4c3C2=O)cc1)c1ccc([N+](=O)[O-])cc1 | 13.6 µM | 14.1 µM | 5.41 | 39.3 µM | 23.2 µM | > 100 µM | 34.1 µM | 25.8 | 36.4 µM | 33.5 µM | 4.88 µM | 5.19 µM | 4.06 µM | 13.1 | 1.47 µM | 3.88 µM | 2.04 | 10.6 µM | 13.7 µM | 11.2 µM |
| O=C1NC(=O)C(C(=O)C(=O)Nc2cc(Cl)ccc2Cl)C(=O)N1 | > 100 µM | > 100 µM | > 100 | > 100 µM | > 100 µM | > 100 µM | > 100 µM | > 100 | > 100 µM | > 100 µM |  |  |  |  |  |  |  |  |  |  |
